The melting point is the temperature, or range, at which the solid turns liquid.

Each structure is given as a SMILES string.

These results are taken from patent US8722723B2, “Aromatic amide derivative” (Research Foundation Itsuu Laboratory, priority 2008, dated 2014).

The test system of one data set is luciferase (Luc). Briefly: Reporter assay: Hela cells transfected with human RORα1 expression vector and luciferase (Luc) reporter vector; Luc activity corrected with β-Gal activity. The data set is classed as cell-based, firefly. On the set-up: key: β-Gal-corrected Luc activity; smaller = inhibition, larger = promotion. The note with it: human RORα1 expression vector, rev-DR2/TK-Luc reporter, about 1 day, smaller number = inhibitory, larger = promoting. The method, then:
The reporter assay was used, in which Hela cells transfected with each of a pcDNA3 vector incorporated with the human RORα1 so that the gene can be expressed in animal cells as an expression vector, and a pGL3 promoter vector of which SV40 promoter was replaced with TK promoter as a luciferase expression reporter vector were used.
The Hela cells were placed at a density of 2×10^4 cells/0.1 mL/well on a 96-well cell culture plate (FALCON) by using 10% FBS-DMEM. On the next day, the human RORα1 expression vector, the reporter vector incorporated with 3 copies of rev-DR2 sequences and the HSV thymidine kinase promoter at a position upstream from the luciferase (Luc) gene, and a β-galactosidase (β-Gal) expression vector for control were introduced into the cells by using a transfection reagent (Fugene6, Roche). On the next day, the medium was replaced with 5% FBS-DMEM containing a test compound diluted at a prescribed concentration, after about 1 day, the cell supernatant was removed, then the cells were lysed (Passive Lysis buffer, Promega), the Luc substrate (PicaGene, Toyo Ink) was added to a part of the lysed cells, and the activity of produced Luc was measured as luminescence intensity. Further, the β-Gal activity was measured as intensity of fluorescence generated when 4-methylumbelliferyl β-D-galactoside was added as a substrate, and the activity of Luc corrected for the transfection efficiency with the β-Gal activity was used as the index for evaluation. A smaller number indicates inhibitory action, and a larger number indicates promoting action.
(In general: In a reporter assay the amount or activity of a reporter protein is the signal.)

Turning to `CN(C)c1ccc2c(c1)C(=O)N(c1ccc(CCCC(=O)O)cc1)C2` [Compound 18, 4-[4-(6-dimethylamino-1-oxo-1,3-dihydro-isoindol-2-yl)-phenyl]-butyric acid], the melting point fell in the range of 186 to 187 °C. The “activity of Luc corrected for the transfection efficiency with the β-Gal activity” value (“activity of Luc corrected” below) in the data set with luciferase (Luc) (test compound 0.01 μM) is 0.1. Further, the “activity of Luc corrected” value in the data set with luciferase (Luc) (test compound 0.1 μM) turned out to be 0. Moreover, the “activity of Luc corrected” value in the data set on luciferase (Luc) (test compound 1 μM) is given as 0.0. Further, the “activity of Luc corrected” value with luciferase (Luc) (test compound 10 μM) turned out to be 0.0.
Take `CCOC(=O)C=Cc1ccc(N2Cc3ccccc3C2=O)cc1` [Compound 23, 3-[4-(1-oxo-1,3-dihydro-isoindol-2-yl)-phenyl]-acrylic acid ethyl ester]: the melting point fell in the range of 184 to 185 °C. In the data set with luciferase (Luc) (test compound 0.01 μM), the “activity of Luc corrected” value is recorded as 0.8. In addition, in the data set on luciferase (Luc) (test compound 0.1 μM), the “activity of Luc corrected” value amounted to 0.9. Moreover, the “activity of Luc corrected” value in the data set with luciferase (Luc) (test compound 1 μM) turned out to be 0.6. Further, the “activity of Luc corrected” value in the data set with luciferase (Luc) (test compound 10 μM) came to 0.5.
The corresponding values for `CN(C)c1ccc2c(c1)C(=O)N(c1ccc(OCC(=O)O)cc1)C2` [Compound 28, [4-(6-dimethylamino-1-oxo-1,3-dihydro-isoindol-2-yl)-phenoxy]-acetic acid] are 206 to 208 °C, 1.1, 0.8, 0.2 and 0.1.
The compound `O=C(O)CCCc1ccc(N2Cc3ccc(F)cc3C2=O)cc1` [Compound 29, 4-[4-(6-fluoro-1-oxo-1,3-dihydro-isoindol-2-yl)-phenyl]-butyric acid] showed a melting point of 172 to 173 °C. In addition, the “activity of Luc corrected” value with luciferase (Luc) (test compound 0.01 μM) came out at 0.5. In the data set with luciferase (Luc) (test compound 0.1 μM), the “activity of Luc corrected” value stood at 0.2. Further, in the data set with luciferase (Luc) (test compound 1 μM), the “activity of Luc corrected” value worked out at 0.0. Also, the “activity of Luc corrected” value with luciferase (Luc) (test compound 10 μM) was found to be 0.0.
Consider `Cc1ccc([N+](=O)[O-])c(C(=O)Nc2ccc(CCCC(=O)O)cc2)c1` [Compound 40, 4-[4-(5-methyl-2-nitro-benzoylamino)-phenyl]-butyric acid], for which the melting point was 152 to 153 °C. Besides, the “activity of Luc corrected” value in the data set with luciferase (Luc) (test compound 0.01 μM) came out at 0.8. In addition, the “activity of Luc corrected” value in the data set with luciferase (Luc) (test compound 0.1 μM) amounted to 0.9. The “activity of Luc corrected” value with luciferase (Luc) (test compound 1 μM) is given as 0.8. Also, the “activity of Luc corrected” value in the data set with luciferase (Luc) (test compound 10 μM) is 0.8.
